Source: patent US20090111847A1, “PREPARATION METHOD AND USE OF COMPOUNDS HAVING HIGH INSECTICIDAL ACTIVITIES” (priority 2006, published 2009)

Assays:
Aphis craccivora = experiment: Insecticidal activity against Aphis craccivora by immersing (mortality after 24 hours); format: in vivo; conditions: for mortality at 500 ppm: Aphis craccivora, 24 h, read-out: Mortality (%) (500 ppm) Aphis craccivora; for Mortality (%) (500 ppm) Aphis craccivora: in vivo
Procedure: Aphis, which belongs to Homoptera and has a piercing-sucking mouthpart, is a common insect for agricultural plant. Aphis craccivora was tested by the way of immersing.
Test method: exactly weighed various samples were independently added to N,N-dimethylformamide to form a 10 g/L stock solution. The mixture was diluted with 0.2 mL/L aqueous Triton X-100 solution to a concentration of 500 ug/mL. After stably sucking on bean sprout, the adult aphis without wings together with bean sprout was dipped into the dilution of 500 ug/mL, 100 ug/mL, 50 ug/mL, 25 ug/mL, 12.5 ug/mL, 6.25 ug/mL (LD50 was calculated), taken out after 5 seconds, and the excess dilution was sucked out with bibulous paper and the adult aphis without wings was incubated in clean vessel at a constant temperature of 23° C. Each concentration was repeated for 3 times and the control group contained 0.2 mL/L aqueous Triton X-100 solution. The number of killed aphis was counted after 24 hours to calculate the mortality.

Nilaparvata lugens = experiment: Insecticidal activity against Nilaparvata lugens by spraying (mortality after 24 hours); format: in vivo; conditions: for mortality at 500 ppm: Nilaparvata lugens, 24 h, read-out: Mortality (%) (500 ppm) Nilaparvata lugens; for Mortality (%) (500 ppm) Nilaparvata lugens: spraying 2 ml, counted after 24 hours
Procedure: Plant hopper, which belongs to Homoptera and has a piercing-sucking mouthpart, is a common insect for agricultural plant. Nilaparvata lugens was tested by the way of spraying.
Test method: the compound to be tested was exactly formulated into a solution having a certain concentration and clean water was used as a blank control. Each process was repeated for 3 tumblers (3 times). 2 ml of solution was sprayed uniformly to each tumbler by a mini manual sprayer. 10 Nilaparvata lugens were introduced to every sink 6 hours before spraying. Three series of experiments were conducted. The number of killed Nilaparvata lugens was counted after 24 hours to calculate the mortality.

| Compound | mortality at 500 ppm (Aphis craccivora) [%] | mortality at 500 ppm (Nilaparvata lugens) [%] | Mortality (%) (500 ppm) Aphis craccivora (Aphis craccivora) | Mortality (%) (500 ppm) Nilaparvata lugens (Nilaparvata lugens) |
| --- | --- | --- | --- | --- |
| COC1CC([N+](=O)[O-])=C2N(Cc3ccc(Cl)nc3)CCN2C1O (stereo not shown) [Compound 46, 1-((6-chloropyridin-3-yl)methyl)-6-methoxy-8-nitro-1,2,3,5,6,7-hexahydroimidazo[1,2-a]pyridin-5-ol] | 100 | 73 | – | – |
| CCC1C(C)C([N+](=O)[O-])=C2N(Cc3ccc(Cl)nc3)CCN2C1O (stereo not shown) [Compound 33] | – | – | 92 | 78 |
| COC1CC(C)C([N+](=O)[O-])=C2N(Cc3ccc(Cl)nc3)CCN21 (stereo not shown) [Compound 2, 1-((6-chloropyridin-3-yl)methyl)-5-methoxy-7-methyl-8-nitro-1,2,3,5,6,7-hexahydroimidazo[1,2-a]pyridine] | 98 | 100 | – | – |
| CCCC1CC(OCC)N2CCN(Cc3ccc(Cl)nc3)C2=C1[N+](=O)[O-] (stereo not shown) [Compound 25] | – | – | 96 | 100 |
| COC1CC(C)(C)C([N+](=O)[O-])=C2N(Cc3ccc(Cl)nc3)CCN21 (stereo not shown) [Compound 32] | – | – | 100 | 100 |
| CCC1C(O)N2CCN(Cc3ccc(Cl)nc3)C2=C([N+](=O)[O-])C1(C)C (stereo not shown) [Compound 37] | – | – | 99 | 88 |
| C=CCOC1CC(C)C([N+](=O)[O-])=C2N(Cc3ccc(Cl)nc3)CCN21 (stereo not shown) [Compound 9] | – | – | 98 | 100 |
| CCOC1C(C)CC([N+](=O)[O-])=C2N(Cc3ccc(Cl)nc3)CCN21 (stereo not shown) [Compound 19] | – | – | 100 | 100 |
| CCC1C([N+](=O)[O-])=C2N(Cc3ccc(Cl)nc3)CCN2C(O)C1C (stereo not shown) [Compound 35] | – | – | 100 | 88 |
| COC1CC(C)C([N+](=O)[O-])=C2N(CC3CCOC3)CCN21 (stereo not shown) [Compound 16] | – | – | 45 | 67 |
| CCCC1CC([N+](=O)[O-])=C2N(Cc3ccc(Cl)nc3)CCN2C1O (stereo not shown) [Compound 28] | – | – | 100 | 96 |
| CC1CC([N+](=O)[O-])=C2N(Cc3ccc(Cl)nc3)CCN2C1O (stereo not shown) [Compound 18, 1-((6-chloropyridin-3-yl)methyl)-6-methyl-8-nitro-1,2,3,5,6,7-hexahydroimidazo[1,2-a]pyridin-5-ol] | 98 | 100 | – | – |
| COC1C(C)C([N+](=O)[O-])=C2N(Cc3ccc(Cl)nc3)CCN2C1O (stereo not shown) [Compound 49] | – | – | 100 | 100 |
| CCOC1CC(O)N2CCN(Cc3ccc(Cl)nc3)C2=C1[N+](=O)[O-] (stereo not shown) [Compound 45] | – | – | 100 | 89 |
| CC1CC(O)N2CCN(Cc3ccc(Cl)nc3)C2=C1[N+](=O)[O-] (stereo not shown) [Compound 1, 1-((6-chloropyridin-3-yl)methyl)-7-methyl-8-nitro-1,2,3,5,6,7-hexahydroimidazo[1,2-a]pyridin-5-ol] | 100 | 100 | – | – |
| COC1C([N+](=O)[O-])=C2N(Cc3ccc(Cl)nc3)CCN2C(O)C1C (stereo not shown) [Compound 43] | – | – | 100 | 97 |
| COC1CC(O)N2CCN(Cc3cnc(Cl)s3)C2=C1[N+](=O)[O-] (stereo not shown) [Compound 44] | – | – | 100 | 97 |
